Experimental data: paper PMC9184620, “TAS1553, a small molecule subunit interaction inhibitor of ribonucleotide reductase, exhibits antitumor activity by causing DNA replication stress” (Communications Biology, 2022)

How the values were obtained:
[1] = test system: intracellular dNTP pools in HCC38 and MV-4-11 cells; assay: Measurement of intracellular dNTP/ATP pools by LC-MS/MS; format: cell-based, human
Experimental: Next, we examined the RNR inhibitory effect of TAS1553 in cells by measuring dNDP pools which are direct products of RNR. However, all dNDP pools could not be detected using LC-MS/MS due to detection limit. Then we determined whether TAS1553 affected the intracellular dNTP pools as surrogate marker for RNR inhibition in cells. LC-MS/MS could not measure dGTP pool due to masking dGTP peak by ATP, as previously reported; thus, dATP, dCTP and dTTP pools were analyzed. HCC38 and MV-4-11, an acute myelogenous leukemia (AML) cell line, were exposed to TAS1553, and the peak area of each dNTP was determined using cell extracts.
(§1) Next, we evaluated both concentration-dependent and time-dependent effects of TAS1553 on the dATP pool in HCC38 and MV-4-11 cell lines using absolute quantification. After 2 h of TAS1553 exposure, there was a concentration-dependent reduction of intracellular dATP pool in both cell lines (Fig. 2c). Furthermore, the intracellular dATP pool was reduced within 30 minutes when treated with TAS1553 at 1 or 10 µmol/L in both cell lines (Fig. 2d), consistent with its inhibitory effect on the protein-protein interaction (Fig. 2a).
Cells were plated, cultured for 1 day, treated with the compound, and harvested. The collected cells were homogenized with 0.42 mol/L perchloric acid, including IS-dATP at 0.6 μmol/L and IS-ATP at 2.4 μmol/L as internal standards for dATP and ATP, respectively. At each time point, xenograft tumors were excised after single dosing of the test compound. The tissues were homogenized with 0.42 mol/L perchloric acid, including IS-dATP at 3 μmol/L as an internal standard for dATP and ATP. Subsequently, a dichloromethane solution containing 0.5 N tri-n-octylamine was added to the perchloric acid-soluble fraction obtained by centrifugation. The aqueous layer collected after vortex and centrifugation was analyzed by LC-MS/MS. LC-MS/MS analysis was performed with a prominence HPLC system connected to a LCMS-8040 tandem mass spectrometer with ESI probe (SHIMADZU CORPORATION). […]

HCC38 cells = assay: Cell proliferation assay (CellTiter-Glo), HCC38; format: cell-based; settings: Homo sapiens, 72 h; HCC38, 3 days exposure
Experimental: as §1
Cell proliferation assay was performed as reported previously. Briefly, cells were plated and incubated for 1 day, followed by 3 days of exposure to the compound. After compound exposure, viable cells were detected by using the CellTiter-Glo luminescent cell viability assay (Promega). GI50 values were calculated using the SAS software package. The experiment was performed in triplicates.

HCC38 xenograft = assay: Antitumor activity in mice bearing HCC38 xenografts; format: in vivo, mouse; settings: 100 mg/kg oral once daily for 14 days
Experimental: Next, we evaluated the antitumor activity of a high-dose administration of TAS1553 and cytarabine in rats bearing MV-4-11 xenografts. […] The rats were treated with cytarabine for 5 days at 16 and 32 mg/kg. […] In addition to the hematologic tumor, we evaluated the antitumor activity of TAS1553 in mice implanted with HCC38 cell line as a solid tumor model. […] Finally, TAS1553 was evaluated for its survival benefit in a mouse model. To achieve this, we established mice bone marrow cells harboring the human MLL-AF9 fusion gene, which is known as a driver gene for AML in humans as well as mice[48]. Mice were transplanted with the cells through the tail vein and the treatment with TAS1553 was started 11 days post-implantation.
For the subcutaneous implantation model of MV-4-11, F344/NJcl-rnu/rnu rats were irradiated with X-ray (4 Gy) to improve the efficiency of xenograft implantation. Two days after X-ray irradiation, MV-4-11 cells suspended in PBS with 50 vol% Matrigel were inoculated into the rats (2 × 10^7 cells/animal). In the mice subcutaneous implantation model, HCC38 cells suspended same as above were inoculated into male BALB/cAJcl-nu/nu mice (1 × 10^7 cells /body). The animals were randomized and administered with the compound for 14 days. Antitumor activity and body weight change were evaluated as previously reported. Dunnett test using the SAS software package in EXSUS (CAC Croit) was used to compare the tumor volume (P < 0.05).

[2] = test system: 68 proteins (ion channels, transporters, nuclear receptors, G protein-coupled receptors); assay: Eurofins LeadProfilingScreen panel assay; format: binding; settings: 10 μmol/L; significant defined as >50% inhibition for each target protein
Experimental: The binding affinity of TAS1553 to the R1 subunit was investigated using surface plasmon resonance (SPR) binding analysis. […] Next, we evaluated the inhibitory effect of TAS1553 against the enzymatic activity of RNR, consisting of R1 and R2 recombinant proteins. RNR activity was determined by its ability to reduce cytidine diphosphate (CDP) to deoxycytidine diphosphate (dCDP), based on a previous report. […] In addition to the inhibitory effect on RNR, TAS1553 was evaluated in a Eurofins LeadProfilingScreen panel assay including 68 proteins, such as ion channels, transporters, nuclear receptors, and G protein-coupled receptors, to examine its potential adverse activity.

Structure (SMILES): Cc1ccc(F)c([C@@H](C)[C@H](NS(=O)(=O)c2ccc(Cl)cc2C(N)=O)c2n[nH]c(=O)o2)c1C [TAS1553, 5-chloro-2-{N-[(1S,2R)-2-(6-fluoro-2,3-dimethylphenyl)-1-(5-oxo-4,5-dihydro-1,3,4-oxadiazol-2-yl)propyl]sulfamoyl}benzamide]
- effect on intracellular dATP area ([1]; HCC38 and MV-4-11, 2 h): dramatically reduced
- effect on intracellular dCTP and dTTP areas ([1]; HCC38 and MV-4-11, 2 h): increased
- effect on intracellular ATP pool ([1]; until 2 h, 10 µmol/L): did not affect the intracellular ATP pool remarkably
- GI50 (HCC38 cells): 352 nM
- T/C ratio (HCC38 xenograft): 40.4%
- inhibition in 68-protein panel [2]: no significant inhibition
